From patent US20110028566A1, “COMPOSITIONS AND PRODUCTS CONTAINING CYCLOALIPHATIC DIOL ANTIMICROBIAL AGENTS AND METHODS OF USING THE COMPOSITIONS AND PRODUCTS” (EASTMAN CHEMICAL COMPANY, priority 2009, published 2011)

Key:
Assay in all cases: Microbial challenge testing in BPW
Assay type in all cases: cell-based
[1] = system: Staphylococcus epidermidis
Description: (§1) The microorganisms used in challenge tests are given in Table 3, designated as either ATCC (American Type Culture Collection) or wild type. These wild type organisms were problematic organisms previously isolated from chemical products. In the description for each organism, the bacteria are indicated as either GN (Gram negative) or GP (Gram positive).
(§2) All of the microorganisms were grown in Tryptose Soy Broth (TSB), DIFCO™ available from Becton, Dickinson and Company, containing 1% dextrose. Aspergillus niger and Candida albicans were incubated at 22° C.±2° C. for at least 96 hours. All bacteria were incubated at 35° C.±2° C. in a humidified incubator for at least 96 hours.
(§3) The following procedure was followed to determine the amount of each challenge material (inoculum broth) required to produce a 10^8 cfu/mL challenge, which is equivalent to a final test-sample microbial concentration of 10^5 to 10^6 cfu (colony-forming units)/mL.
(§4) Using a sterile serological pipette, 1 mL of the growth from each TSB culture was transferred into tubes containing 9 mL phosphate buffer (pH 7.2) and mixed thoroughly. This process was repeated to make serial 1:10 dilutions. Then 0.1 mL of each sample and dilution was inoculated onto agar plates to produce the equivalent of a further 1:10 dilution. C. albicans and A. niger were inoculated onto SDA and bacteria were inoculated onto Plate Count Agar (PCA), DIFCO™ available from Becton, Dickinson and Company. The 0.1 mL aliquots were evenly distributed on the plates using the spread-plate technique. The spread-plate technique is performed by spreading the aliquot over the entire plate surface using a sterile spreading rod while rotating the plate with a rotary auto-plater. After the inoculum was absorbed completely, each plate was inverted and incubated (fungi at 22° C.±2° C. and bacteria at 35° C.±2° C.).
(§5) After incubation for at least 48 hours, colonies that had developed on the agar plates were counted and recorded with the corresponding dilution. If counting had to be delayed temporarily, plates were refrigerated, preferably no more than 24 hours, until they could be counted. The number of cfu/mL was determined by multiplying the count by the dilution factor for that particular plate.
(§6) Turbidity in Nepholemetric Turbidity Units (NTU) was measured for each serial dilution using the HF-Micro 100 Model Turbidimeter. For each microorganism, the plate counts were compared to the turbidity readings.
(§7) Control substrates (“broth alone”) were prepared for each microorganism separately in triplicate by adding 13.5 mL of BPW (pH 7.0) containing 1% (w/v) dextrose to each 20-mL glass tube; then adding 1.5 mL challenge material to produce a final concentration at time zero of 10^5 to 10^6 cfu/mL and a total volume of 15 mL.
(§8) Test sample substrates were prepared containing each test material (1,4-CHDM, etc) or combination of test materials at the concentrations shown in Tables 5 and 6. Sample substrates were prepared in triplicate, except those substrates containing PE or CG which were prepared in duplicate. Substrates were prepared by adding BPW containing 1% (w/v) dextrose to each 20-mL glass tube, then adding the test material in the amount appropriate to achieve the desired weight/volume percent (g/100 mL) and to obtain a total volume of BPW with dextrose and test material of 13.5 mL. Then 1.5 mL challenge material was added to produce a final concentration at time zero of 10^5 to 10^6 cfu/mL of the respective organism and a total test sample substrate volume of 15 mL.
(§9) After mixing, all challenged substrates were incubated at 35° C.±2° C. for 14 days and then at ambient room temperature.

Escherichia coli = system: Escherichia coli
Description: as §1, §2, §3, §4, §5, §6, §7, §8, §9

Staphylococcus aureus = system: Staphylococcus aureus
Description: as §1, §2, §3, §4, §5, §6, §7, §8, §9

Burkholderia cepacia = system: Burkholderia cepacia
Description: as §1, §2, §3, §4, §5, §6, §7, §8, §9

Pseudomonas aeruginosa = system: Pseudomonas aeruginosa
Description: as §1, §2, §3, §4, §5, §6, §7, §8, §9

Candida albicans = system: Candida albicans
Description: as §1, §2
Aspergillus niger and Candida albicans were also grown on Sabouraud dextrose agar (SDA) at 22° C.±2° C. for 7 to 14 days or until full sporulation was achieved.
as §3, §4, §5, §6
On the day of challenge, the Candida albicans inoculum broth was poured through non-absorbent sterile gauze and centrifuged. The […] was then diluted with phosphate buffer (pH 7.2) until the desired turbidity was reached. Using a hemocytometer, a determination was made whether the challenge contained the desired concentration. Dilutions were made through 1.0×10^8 and three SDA spread plates were inoculated with 0.1 mL of each dilution.
as §7
Test sample substrates were prepared containing each test material (1,4-CHDM, etc) or combination of test materials at the concentrations shown in Tables 5 and 6.

O=c1[nH]sc2ccccc12 [BIT, 1,2-benzisothiazolin-3-one]
Grade code S. epidermidis ([1]; 0.05%, 30 days incubation): 4 (1001 to 10,000 colonies (thus 10,000 cfu/mL to 100,000 cfu/mL))
Grade code S. epidermidis ([1]; 0.2%, 3 days incubation): 4 (1001 to 10,000 colonies (thus 10,000 cfu/mL to 100,000 cfu/mL))
Grade code S. epidermidis ([1]; 0.2%, 13 days incubation): 2 (52 to 100 colonies counted (thus 520 to 1000 cfu/mL))
Grade code S. epidermidis ([1]; 0.2%, 30 days incubation): 2 (52 to 100 colonies counted (thus 520 to 1000 cfu/mL))
Grade code E. coli (Escherichia coli; 0.05%, 3 days incubation): 4 (1001 to 10,000 colonies (thus 10,000 cfu/mL to 100,000 cfu/mL))
Grade code E. coli (Escherichia coli; 0.05%, 14 days incubation): 4 (1001 to 10,000 colonies (thus 10,000 cfu/mL to 100,000 cfu/mL))
Grade code E. coli (Escherichia coli; 0.05%, 30 days incubation): 4 (1001 to 10,000 colonies (thus 10,000 cfu/mL to 100,000 cfu/mL))
Grade code E. coli (Escherichia coli; 0.2%, 3 days incubation): 1 (1 to 51 colonies counted (thus 10 to 510 cfu/mL))
Grade code E. coli (Escherichia coli; 0.2%, 14 days incubation): 0 (No growth detected or <1 colony (thus <10 cfu/mL))
Grade code E. coli (Escherichia coli; 0.2%, 30 days incubation): 0 (No growth detected or <1 colony (thus <10 cfu/mL))
Grade code S. aureus (Staphylococcus aureus; 0.05%, 3 days incubation): 4 (1001 to 10,000 colonies (thus 10,000 cfu/mL to 100,000 cfu/mL))
Grade code S. aureus (Staphylococcus aureus; 0.05%, 14 days incubation): 4 (1001 to 10,000 colonies (thus 10,000 cfu/mL to 100,000 cfu/mL))
Grade code S. aureus (Staphylococcus aureus; 0.05%, 30 days incubation): 4 (1001 to 10,000 colonies (thus 10,000 cfu/mL to 100,000 cfu/mL))
Grade code S. aureus (Staphylococcus aureus; 0.2%, 3 days incubation): 4 (1001 to 10,000 colonies (thus 10,000 cfu/mL to 100,000 cfu/mL))
Grade code S. aureus (Staphylococcus aureus; 0.2%, 14 days incubation): 3 (101 to 1000 colonies (thus 1000 to 10,000 cfu/mL))
Grade code S. aureus (Staphylococcus aureus; 0.2%, 30 days incubation): 3 (101 to 1000 colonies (thus 1000 to 10,000 cfu/mL))
Grade code B. cepacia (Burkholderia cepacia; 0.05%, 3 days incubation): 4 (1001 to 10,000 colonies (thus 10,000 cfu/mL to 100,000 cfu/mL))
Grade code B. cepacia (Burkholderia cepacia; 0.05%, 14 days incubation): 4 (1001 to 10,000 colonies (thus 10,000 cfu/mL to 100,000 cfu/mL))
Grade code B. cepacia (Burkholderia cepacia; 0.05%, 30 days incubation): 4 (1001 to 10,000 colonies (thus 10,000 cfu/mL to 100,000 cfu/mL))
Grade code B. cepacia (Burkholderia cepacia; 0.2%, 3 days incubation): 3 (101 to 1000 colonies (thus 1000 to 10,000 cfu/mL))
Grade code B. cepacia (Burkholderia cepacia; 0.2%, 14 days incubation): 1 (1 to 51 colonies counted (thus 10 to 510 cfu/mL))
Grade code B. cepacia (Burkholderia cepacia; 0.2%, 30 days incubation): 2 (52 to 100 colonies counted (thus 520 to 1000 cfu/mL))
Grade code P. aeruginosa (Pseudomonas aeruginosa; 0.05%, 3 days incubation): 4 (1001 to 10,000 colonies (thus 10,000 cfu/mL to 100,000 cfu/mL))
Grade code P. aeruginosa (Pseudomonas aeruginosa; 0.05%, 13 days incubation): 4 (1001 to 10,000 colonies (thus 10,000 cfu/mL to 100,000 cfu/mL))
Grade code P. aeruginosa (Pseudomonas aeruginosa; 0.05%, 30 days incubation): 4 (1001 to 10,000 colonies (thus 10,000 cfu/mL to 100,000 cfu/mL))
Grade code P. aeruginosa (Pseudomonas aeruginosa; 0.2%, 3 days incubation): 3 (101 to 1000 colonies (thus 1000 to 10,000 cfu/mL))
Grade code P. aeruginosa (Pseudomonas aeruginosa; 0.2%, 13 days incubation): 4 (1001 to 10,000 colonies (thus 10,000 cfu/mL to 100,000 cfu/mL))
Grade code P. aeruginosa (Pseudomonas aeruginosa; 0.2%, 30 days incubation): 4 (1001 to 10,000 colonies (thus 10,000 cfu/mL to 100,000 cfu/mL))
Grade code C. albicans (Candida albicans; 0.05%, 3 days incubation): 4 (1001 to 10,000 colonies (thus 10,000 cfu/mL to 100,000 cfu/mL))
Grade code C. albicans (Candida albicans; 0.05%, 14 days incubation): 4 (1001 to 10,000 colonies (thus 10,000 cfu/mL to 100,000 cfu/mL))
Grade code C. albicans (Candida albicans; 0.05%, 30 days incubation): 4 (1001 to 10,000 colonies (thus 10,000 cfu/mL to 100,000 cfu/mL))
Grade code C. albicans (Candida albicans; 0.2%, 3 days incubation): 4 (1001 to 10,000 colonies (thus 10,000 cfu/mL to 100,000 cfu/mL))
Grade code C. albicans (Candida albicans; 0.2%, 14 days incubation): 3 (101 to 1000 colonies (thus 1000 to 10,000 cfu/mL))
Grade code C. albicans (Candida albicans; 0.2%, 30 days incubation): 3 (101 to 1000 colonies (thus 1000 to 10,000 cfu/mL))
